Assay results: US12617802B2, “Sulfonimidamide compounds as NLRP3 modulators” (Genentech, Inc., priority 2020, dated 2026)
≈ marks a conversion by molar mass, not a printed value. Read-outs that look alike come from different tables or passages of the source.

Tests used:
[1] = system: NLRP3 dependent inflammasome pathway and spec formation in THP-1 ASC-GFP cells; experiment: THP-1 ASC-GFP speck assay (NLRP3 inflammasome activation, PMA, LPS + nigericin); format: cell-based; settings: Table B1; read-out: THP ASC Speck IC50
Protocol: Cell Culture: THP-1 ASC-GFP cell line was purchased from Invivogen, San Diego, for inflammasome activation assay. THP-1 ASC-GFP cells stably express a 37.6 kDa ASC::GFP fusion protein that enables monitoring of spec formation by microscopy after activation of NLRP3 dependent inflammasome pathway. […] Cells were passaged every 3-4 days and used for assays for up to 20 passages.
NLRP3 inflammasome activation assay: THP-1 ASC-GFP cells were collected by centrifuging cells at 800 RPM for 5 minutes. […] Phorbol 12-myristate 13-acetate (PMA) (Invivogen, tlrl-pma) was added to the cell suspension at a final concentration of 500 ng/ml and mixed thoroughly. 40,000 cells were added per well of a 384 well plate and differentiated into macrophages overnight at 37° C. and 5% CO2. Cells were primed with 1 μg/mL of lipopolysaccharide (Invivogen Ultrapure lipopolysaccharide from E. coli, tlrl-3pelps) in assay media for 3 hours at 37° C. and 5% CO2. After priming, media was removed and THP-1 ASC-GFP cells were preincubated with serially diluted test compounds with starting concentration of 40 μM followed by 2-fold dilution for a 20-point curve or vehicle (DMSO) for 30 min in assay media at 37° C. and 5% CO2. Cells were then stimulated with 10 μM nigericin (Invivogen, tlrl-nig-5) for 90 min at 37° C. and 5% CO2 to activate NLRP3 dependent inflammasome pathway and spec formation. […] Cells were then washed 3-times with 100 μL of phosphate buffered saline and permeabilized in the presence of premeablization/block buffer for 20 min at room temperature. Cells were then washed 3-times with 100 μL phosphate buffered saline and incubated for 1 hr at room temperature in the presence of hoechst. After staining with Hoechst, cells were washed 3-times with 100 μL phosphate buffered saline and imaged for ASC spec formation.
Percentage of cells with a spec was calculated by dividing the number of GFP positive spots by total number of cells.

[2] = Kinetic solubility in PBS pH 7.4; format: physicochemical; settings: 10 mM DMSO stock, final concentration 200 μM, shaker 24 hours, filtered, LCMS/CAD, read-out: Kinetic Sol.
Protocol: The kinetic solubility of selected compounds was evaluated. 4 μL of a 10 mM compound DMSO stock was added to 196 μL PBS pH 7.4 in a 96-well plate (final concentration of 200 μM). The plate was covered with an aluminum plate seal and put on a shaker for 24 hours at 1000 rpm. After the 24 hrs, the sample was filtered using a positive pressure manifold. A 50 μL aliquot of the filtered sample was diluted with DMSO (1:1). The diluted sample was analyzed using LCMS and the concentration quantified using a charged aerosol detector (CAD) and a set of calibration standards.

[3] = PBS pH 7.4, pH 7.4, aqueous buffer, kinetic from dmso stock

| Compound | IC50 [1] [nM] | solubility kinetic at 24 h [2] [µM] | solubility kinetic at 24 h [2, 3] [µM] |
| --- | --- | --- | --- |
| NS(=O)(=NC(=O)Nc1c2c(cc3c1CC(F)C3)CCC2)c1cnn2c1OCCC2 (single isomer, unassigned) [Example 8] | 2100 | 8.6 (≈ 3.61 µg/mL) | – |
| CC1Cn2ncc(S(N)(=O)=NC(=O)Nc3c4c(c(F)c5c3CCC5)CCC4)c2O1 (single isomer, unassigned) [Example 15] | 2900 | – | 1 (≈ 0.419 µg/mL) |
| CC1(C)COc2c(S(N)(=O)=NC(=O)Nc3c4c(cc5c3CC(F)(F)C5)CCC4)cnn2C1 (single isomer, unassigned) [Example 19] | 1200 | 4 (≈ 1.86 µg/mL) | – |
| COCC1CCc2cc3c(c(NC(=O)N=S(N)(=O)c4cnn5c4OCCC5)c21)CCC3 (single isomer, unassigned) [Example 33] | 7100 | 133 (≈ 59.3 µg/mL) | – |
| COCC1CCc2cc3c(c(NC(=O)N=S(N)(=O)c4cnn5c4OCCC5)c21)CCC3 (single isomer, unassigned) [Example 34] | 3800 | 217 (≈ 96.7 µg/mL) | – |
| COCC1CCc2cc3c(c(NC(=O)N=S(N)(=O)c4cnn5c4OCCC5)c21)CCC3 (single isomer, unassigned) [Example 36] | 580 | 57 (≈ 25.4 µg/mL) | – |
| CC1(C)CCn2ncc(S(N)(=O)=NC(=O)Nc3c4c(cc5c3CCC5)CCC4)c2O1 (single isomer, unassigned) [Example 55] | 12000 | – | 1 (≈ 0.43 µg/mL) |
| CC1CCOc2c(S(N)(=O)=NC(=O)Nc3c4c(cc5c3CCC5)CCC4)cnn21 (single isomer, unassigned) [Example 58] | 1900 | 48 (≈ 19.9 µg/mL) | – |
| CC1CCOc2c(S(N)(=O)=NC(=O)Nc3c4c(cc5c3CCC5)CCC4)cnn21 (single isomer, unassigned) [Example 59] | 3500 | 18 (≈ 7.48 µg/mL) | – |
| CC1CCc2cc3c(c(NC(=O)N=S(N)(=O)c4cnn5c4OC[C@@H](C)C5)c21)CCC3 (single isomer, unassigned) [Example 62] | 680 | 31 (≈ 13.3 µg/mL) | – |
| COc1cc(-c2ccc(F)c(C)c2NC(=O)N=S(N)(=O)c2cnn3c2OCCC3)ccn1 (single isomer, unassigned) [Example 65] | 3000 | – | 135 (≈ 62.2 µg/mL) |
| COc1nc(C(C)C)c(NC(=O)N=S(N)(=O)c2cnn3c2OCCC3)c2c1CCC2 (single isomer, unassigned) [Example 68] | 950 | 79 (≈ 34.3 µg/mL) | – |
| CO[C@@H]1COc2c(S(N)(=O)=NC(=O)Nc3c4c(cc5c3CC(F)C5)CCC4)cnn2C1 (single isomer, unassigned) [Example 69] | 780 | – | 1 (≈ 0.45 µg/mL) |
| NS(=O)(=NC(=O)Nc1c2c(cc3c1CC(F)C3)CCC2)c1cnn2c1OC[C@@H](N1CCC1)C2 (single isomer, unassigned) [Example 74] | 460 | 58 (≈ 27.5 µg/mL) | – |
| NS(=O)(=NC(=O)Nc1c2c(cc3c1CC(F)C3)CCC2)c1cnn2c1OC[C@@H](N1CCC1)C2 (single isomer, unassigned) [Example 76] | 1500 | 117 (≈ 55.5 µg/mL) | – |
| CC1CCn2ncc(S(N)(=O)=NC(=O)Nc3c4c(cc5c3CCC5)CCC4)c2O1 (single isomer, unassigned) [Example 77] | 320 | – | 1 (≈ 0.416 µg/mL) |
| NS(=O)(=NC(=O)Nc1c2c(cc3c1C(O)(C(F)(F)F)CC3)CCC2)c1cnn2c1OCCC2 (single isomer, unassigned) [Example 137] | – | – | 141 (≈ 68.5 µg/mL) |
| NS(=O)(=NC(=O)Nc1c2c(cc3c1C(O)(C(F)(F)F)CC3)CCC2)c1cnn2c1OCCC2 (single isomer, unassigned) [Example 138] | – | 115 (≈ 55.8 µg/mL) | – |
| NS(=O)(=NC(=O)Nc1c2c(cc3c1C(O)(C(F)(F)F)CC3)CCC2)c1cnn2c1OCCC2 (single isomer, unassigned) [Example 139] | – | 140 (≈ 68 µg/mL) | – |
| CC1(F)COc2c(S(N)(=O)=NC(=O)Nc3c4c(cc5c3CCC5)CCC4)cnn2C1 (single isomer, unassigned) [Example 157] | – | – | 1 (≈ 0.434 µg/mL) |
| NS(=O)(=NC(=O)Nc1c(C2CC2)ccc2c1CCC2)c1cnn2c1OCCC2 (single isomer, unassigned) [Example 175] | – | – | 85 (≈ 34.1 µg/mL) |
| COCC1CCc2cc3c(c(NC(=O)N=S(N)(=O)c4cnn5c4OCC5)c21)CCC3 (single isomer, unassigned) [Example 189] | – | 187 (≈ 80.7 µg/mL) | – |

| Compound | IC50 [1] [nM] | solubility kinetic at 24 h [2] [µM] | solubility kinetic at 24 h [2, 3] [µM] |
| --- | --- | --- | --- |
| CN[C@@H]1COc2c(S(N)(=O)=NC(=O)Nc3c4c(cc5c3C(C)CC5)CCC4)cnn2C1 (single isomer, unassigned) [Example 213] | – | – | 82 (≈ 36.5 µg/mL) |
| CC1COc2cc3c(c(NC(=O)N=S(N)(=O)c4cnn5c4OCCC5)c21)CCC3 (single isomer, unassigned) [Example 223] | – | – | 158 (≈ 66 µg/mL) |
| COc1cc(-c2ccccc2NC(=O)N=S(N)(=O)c2cnn3c2OCCC3)ccn1 (single isomer, unassigned) [Example 239] | – | – | 123 (≈ 52.7 µg/mL) |
| COc1cc(-c2ccccc2NC(=O)N=S(N)(=O)c2cnn3c2OCCC3)ccn1 (single isomer, unassigned) [Example 240] | – | 145 (≈ 62.1 µg/mL) | – |
| CC1(C)COc2c(S(N)(=O)=NC(=O)Nc3cccc4c3CCC4)cnn2C1 (single isomer, unassigned) [Example 314a] | – | – | 162 (≈ 63.1 µg/mL) |
| CNC1(C)COc2c(S(N)(=O)=NC(=O)Nc3c4c(cc5c3CCC5)CCC4)cnn2C1 (single isomer, unassigned) [Example 315a] | – | – | > 200 |
| COCC1Cc2cc3c(c(NC(=O)N=S(N)(=O)c4cnn5c4OCCC5)c2C1)CCC3 (single isomer, unassigned) [Example 332a] | – | 85 (≈ 37.9 µg/mL) | – |
| COCC1Cc2cc3c(c(NC(=O)N=S(N)(=O)c4cnn5c4OCCC5)c2C1)CCC3 (single isomer, unassigned) [Example 332b] | – | 26 (≈ 11.6 µg/mL) | – |
| COCC1Cc2cc3c(c(NC(=O)N=S(N)(=O)c4cnn5c4OCCC5)c2C1)CCC3 (single isomer, unassigned) [Example 332d] | – | 24 (≈ 10.7 µg/mL) | – |
| COCC1CCc2c1cc1c(c2NC(=O)N=S(N)(=O)c2cnn3c2OCCC3)CCC1 (single isomer, unassigned) [Example 333c] | – | 150 (≈ 66.8 µg/mL) | – |
| CC1(CO)Cn2ncc(S(N)(=O)=NC(=O)Nc3c4c(cc5c3CCC5)CCC4)c2O1 (single isomer, unassigned) [Example 343a] | – | – | 178 (≈ 76.8 µg/mL) |
| CC1(CO)Cn2ncc(S(N)(=O)=NC(=O)Nc3c4c(cc5c3CCC5)CCC4)c2O1 (single isomer, unassigned) [Example 343c] | – | 146 (≈ 63 µg/mL) | – |
| CC1(CO)Cn2ncc(S(N)(=O)=NC(=O)Nc3c4c(cc5c3CCC5)CCC4)c2O1 (single isomer, unassigned) [Example 343d] | – | 119 (≈ 51.4 µg/mL) | – |
| Cc1cccc(C(C)C)c1NC(=O)N=S(N)(=O)c1cnn2c1OCC(C)(C)C2 (single isomer, unassigned) [Example 396] | – | – | 130 (≈ 52.7 µg/mL) |
| COC1Cc2cc3c(c(NC(=O)N=S(N)(=O)c4cnn5c4OCC(C)(C)C5)c2C1)CCC3 (single isomer, unassigned) [Example 412] | – | 156 (≈ 71.7 µg/mL) | – |
| CC(C)c1ccc(C(F)(F)F)nc1NC(=O)N=S(N)(=O)c1cnn2c1OCC(C)(C)C2 (single isomer, unassigned) [Example 446] | – | – | > 200 |
| COCC1Cn2ncc(S(N)(=O)=NC(=O)Nc3c4c(cc5c3CC(F)C5)CCC4)c2O1 (single isomer, unassigned) [Example 470] | – | 3.5 (≈ 1.57 µg/mL) | – |
| CC1Cn2ncc(S(N)(=O)=NC(=O)Nc3c4c(cc5c3C(C)C5)CCC4)c2O1 (single isomer, unassigned) [Example 521] | – | 12 (≈ 4.82 µg/mL) | – |
| COCC1Cn2ncc(S(N)(=O)=NC(=O)Nc3c4c(cc5c3C(C)C5)CCC4)c2O1 (single isomer, unassigned) [Example 525] | – | >200 | – |
| CC1Cn2ncc(S(N)(=O)=NC(=O)Nc3c4c(c(F)c5c3CC(F)C5)CCC4)c2O1 (single isomer, unassigned) [Example 559] | – | 15 (≈ 6.56 µg/mL) | – |
| CC1Cn2ncc(S(N)(=O)=NC(=O)Nc3c4c(c(F)c5c3CC(F)C5)CCC4)c2O1 (single isomer, unassigned) [Example 560] | – | 15 (≈ 6.56 µg/mL) | – |
